According to the supplement of paper PMC10307832:

Key:
Assay in all cases: relative viability (nuclei count vs DMSO), 5 days (fraction); higher = more cells survive
[1] = compound: CCN1C(=O)C2=CC(=C(N=C2N(C1=O)C3CC3)N)C(=O)N + CC1(C)CCC(c2ccc(Cl)cc2)=C(CN2CCN(c3ccc(C(=O)NS(=O)(=O)c4ccc(N[C@H](CCN5CCOCC5)CSc5ccccc5)c(S(=O)(=O)C(F)(F)F)c4)cc3)CC2)C1 [Navitoclax] (partner 0.5 µM)
Method in brief: (§1)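 Nuclei were stained with Hoechst during a one-step fixation (final 0.05% Triton X-100, 1% formaldehyde, 1 ug/ml Hoechst) carried out 5 days after dosing, then counted on 4× images. The cells, lung cancer lines in 1536-well plates, had been dosed by pin tool the day after seeding with one drug alone or a fixed anchor-drug dose plus five library-drug doses (not always all listed) in √10 steps. Relative viability is the nuclei count in treated wells divided by that in vehicle wells, and each value is the median of duplicate plates.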

[2] = compound: CCN1C(=O)C2=CC(=C(N=C2N(C1=O)C3CC3)N)C(=O)N + COc1cc2c(Oc3ccc(NC(=O)C4(C(=O)Nc5ccc(F)cc5)CC4)cc3F)ccnc2cc1OCCCN1CCOCC1 [Foretinib] (partner 0.25 µM)
Method in brief: as §1

[3] = compound: CCN1C(=O)C2=CC(=C(N=C2N(C1=O)C3CC3)N)C(=O)N + COc1cccc2cc(-c3nc([C@H]4CC[C@H](C(=O)O)CC4)n4ncnc(N)c34)[nH]c12 [OSI-027] (partner 0.5 µM)
Method in brief: as §1

[4] = compound: CCN1C(=O)C2=CC(=C(N=C2N(C1=O)C3CC3)N)C(=O)N + Cc1cc(Nc2cc(N3CCN(C)CC3)nc(Sc3ccc(NC(=O)C4CC4)cc3)n2)n[nH]1 [Tozasertib] (partner 0.1 µM)
Method in brief: as §1

[5] = compound: CCN1C(=O)C2=CC(=C(N=C2N(C1=O)C3CC3)N)C(=O)N + Nc1nc2[nH]cc(CCc3ccc(C(=O)N[C@@H](CCC(=O)O)C(=O)O)cc3)c2c(=O)[nH]1 [Pemetrexed] (partner 0.2 µM)
Method in brief: as §1

Cell Line	relative viability ([1]; first compound 0.253 µM)	relative viability ([1]; first compound 0.8 µM)	relative viability ([1]; first compound 2.53 µM)	relative viability ([1]; first compound 8 µM)	relative viability ([2]; first compound 0.253 µM)	relative viability ([2]; first compound 0.8 µM)	relative viability ([2]; first compound 2.53 µM)	relative viability ([2]; first compound 8 µM)	relative viability ([3]; first compound 0.253 µM)	relative viability ([3]; first compound 0.8 µM)	relative viability ([3]; first compound 2.53 µM)	relative viability ([3]; first compound 8 µM)	relative viability ([4]; first compound 0.253 µM)	relative viability ([4]; first compound 0.8 µM)	relative viability ([4]; first compound 2.53 µM)	relative viability ([4]; first compound 8 µM)	relative viability ([5]; first compound 0.253 µM)	relative viability ([5]; first compound 0.8 µM)	relative viability ([5]; first compound 2.53 µM)	relative viability ([5]; first compound 8 µM)
NCI-H1755	1.03	0.936	0.98	0.938	0.974	0.887	0.914	0.875	0.744	0.749	0.703	0.72	0.567	0.515	0.514	0.528	0.525	0.412	0.418	0.471
NCI-H1793	0.701	0.385	–	0.404	–	0.612	0.575	0.679	–	0.294	0.212	0.239	–	0.375	0.265	0.298	0.915	0.925	0.805	0.861
NCI-H1915	0.738	0.799	0.752	0.711	1.05	1.09	1.11	1.04	0.636	0.638	0.6	0.679	0.451	0.33	0.393	0.416	0.5	0.507	0.493	0.509
NCI-H1944	1.02	1.04	0.978	1.02	0.976	0.91	0.843	0.949	0.4	0.399	0.473	0.378	0.26	0.266	0.247	0.279	0.64	0.589	0.615	0.624
NCI-H1975	1.31	1.06	1.19	1.02	1.02	0.916	0.895	0.951	0.809	0.697	0.604	0.536	0.738	0.737	0.608	0.331	0.294	0.292	0.319	0.288
NCI-H1993	0.994	0.875	0.797	0.757	0.819	0.751	0.625	0.822	0.578	0.558	0.523	0.534	0.6	0.569	0.537	0.512	0.607	0.525	0.607	0.541
NCI-H2009	1.15	1.14	1.11	1.08	1.2	1.18	1.2	1.12	0.634	0.622	0.619	0.621	0.732	0.751	0.697	0.809	1.1	1.09	1	0.966
NCI-H2023	0.946	1.02	0.955	0.95	0.756	0.743	0.845	0.848	0.449	0.365	0.386	0.34	0.402	0.32	0.241	0.233	0.198	0.182	0.222	0.247
